The subject of data set [1] is human lactase gene. In words: Lactase mRNA expression (qPCR) in Caco-2 cells stimulated with PPAR agonists. The data set is classed as cell-based. The settings on record: for LCT gene expression in Caco2 cells: summary statement. The method, then: Caco-2 colonic adenocarcinoma cell lines were used. Caco-2 cells grew in Dulbecco's modified Eagle's medium (DMEM, Invitrogen, Cergy-Pontoise, France) supplemented with 20% foetal calf serum (FCS, Dutscher, Brumath, France), 1% penicillin-streptomycin (5 ml/l) (Invitrogen) and 1% non-essential amino acids (5 ml/l) (Invitrogen). All cell lines were cultured as confluent monolayers at 37° C. in a controlled, 5% CO2 atmosphere. Each week, the confluent monolayer were trypsinized (Invitrogen) and then replated after a 1:10 dilution. For the stimulation experiments, cells were placed in 6-well plates at a density of 1×10^6 cells per well. Serum deprivation was used 16 hours prior to stimulation in order to synchronize the cells.
The cells were treated with Compound 34 (1 mM and 30 mM), 5-ASA (30 mM), or pioglitazone (1 μM). When necessary, the vehicle DMSO (Sigma) is used as control (Ctrl). After 24 hrs of stimulation, the wells were rinsed three times with sterile PBS at 4° C. The cells were then lysed with lysis buffer (RA1, Macherey-Nagel) containing 1% β-mercaptoethanol. The plates were frozen at −80° C. for subsequent RNA extraction. A time course experiment consisting of stimulation of Caco-2 cells by compound 34, 1 mM during 6 hrs and 12 hrs was also done in order to compare gene expression according treatment duration.
Total RNA were extracted with a Nucleospin RNA kit (Macherey-Nagel, Hoerdt, France). After RNAse inactivation, the total RNA was cleaned of trace genomic DNA via a DNAse treatment and eluted in RNAse-free, DEPC-free water. The purity of the RNA will be evaluated by UV spectroscopy on a Nanodrop system from 220 to 350 nm. Before microarray experiment, RNAs were also profiled on an Agilent 2100 bioanalyzer. One μg of total RNA were used in the microarray analysis (minimum concentration: 50 ng/μl).
(§1) Transcripts of genes were estimated by quantitative PCR (qPCR) in order to confirm microarrays results. 1 μg of total RNA was reverse-transcripted into cDNA using the High Capacity cDNA Achive kit (Applied biosystems). qPCR was performed using an ABI PRISM 7000 sequence detection system (Applied Biosystem). Primer pairs for each transcript were chosen with qPrimer depot software. Quantification of qPCR signals was performed using ΔCt relative quantification method using GAPDH as a reference gene. The values were represented in terms of relative quantity of mRNA level variation or fold increase compared to control conditions.
Each experiment has been done at least twice. The lactase gene expression was first confirmed to be stimulated by compound 34 at two different concentrations (1 mM, fold increase 4.78, p=0.0002; 30 mM, fold increase 7.9, p=0.0006) (FIG. 4A).
(In general: Real-time PCR tracks product formation cycle by cycle.)

Data set [2] has as its system PPAR semi deficient epithelial cells. Description: LCT gene expression in PPAR knock down (ShPPAR) Caco-2 cells. It is filed as cell-based, human. The method, then: as §1
PPARγ knock down IECs were obtained using the pSUPER.retro system (OligoEngine). Forward and reverse target sequences corresponding to nucleotides 105-123 of the human PPARg mRNA (5-′-GCCCTTCACTACTGTTGAC-3′ (SEQ ID NO: 1)) were cloned into the BglII/XhoI restriction sites of the pSUPERretro vector (pRS) giving the ShPPAR construct. A negative control pRS plasmid containing the sequence 5′-ACGCTGAGTACTTCGAAAT-3′ (SEQ ID NO: 2) targeted against the luciferase gene was also generated (ShLuc construct). Both constructions were transfected in Caco-2 cells using Nucleofector technology from Amaxa Biosystems, according to the manufacturer's protocol. […] The silencing of PPARg expression was checked by quantitative RT-PCR and western-blot analysis. […]

`Nc1ccc(O)c(C(=O)O)c1` [5ASA, 5-amino salicyclic acid]: the “lactase gene expression, fold increase” value in data set [1] (30 mM, 24 hrs, Caco-2 cells) is 12.69 fold. The “LCT gene expression in Caco2 cells” value in data set [1] was “enhance LCT gene expression”. Further, in data set [2], the “LCT gene expression in PPAR semi deficient epithelial cells” value was “kept their upregulatory effects”.

On to `CCc1ccc(CCOc2ccc(CC3SC(=O)NC3=O)cc2)nc1` (centres unmarked) [pioglitazone], for which, in data set [1] (1 μM, 24 hrs, Caco-2 cells), the “lactase mRNA expression, fold increase” value came to 11.76 fold. Further, the “LCT gene expression in Caco2 cells” value in data set [1] is recorded as “enhance LCT gene expression”.

For the origin of these results see patent US9682050B2, “Methods of treating lactose intolerance” (Nogra Pharma Limited, priority 2012, dated 2017).
